Laboratory results published in ChEMBL document CHEMBL4229379, “Synthesis and structure-activity relationship of novel bisindole amidines active against MDR Gram-positive and Gram-negative bacteria” (Eur J Med Chem, 2018).

Columns and labels:
Type in all cases: functional
[1] = test system: Staphylococcus epidermidis; experiment: Antibacterial activity against methicillin-sensitive Staphylococcus epidermidis ATCC 12228 after 18 hrs by CLSI broth microdilution method; conditions: ATCC 12228, 18 h
[2] = test system: Staphylococcus epidermidis; experiment: Antibacterial activity against methicillin-resistant Staphylococcus epidermidis 12-8 after 18 hrs by CLSI broth microdilution method; conditions: 12-8, 18 h
Staphylococcus aureus [3] = experiment: Antibacterial activity against methicillin-sensitive Staphylococcus aureus ATCC 29213 after 18 hrs by CLSI broth microdilution method; conditions: ATCC 29213, 18 h
Staphylococcus aureus [4] = experiment: Antibacterial activity against methicillin-resistant Staphylococcus aureus 12-33 after 18 hrs by CLSI broth microdilution method; conditions: 12-33, 18 h
Enterococcus faecalis [5] = experiment: Antibacterial activity against vancomycin-sensitive Enterococcus faecalis ATCC 29212 after 18 hrs by CLSI broth microdilution method; conditions: ATCC 29212, 18 h
Enterococcus faecalis [6] = experiment: Antibacterial activity against vancomycin-resistant Enterococcus faecalis 09-9 after 18 hrs by CLSI broth microdilution method; conditions: 09-9, 18 h
Enterococcus faecium [7] = experiment: Antibacterial activity against vancomycin-resistant Enterococcus faecium ATCC 700221 after 18 hrs by CLSI broth microdilution method; conditions: ATCC 700221, 18 h
Enterococcus faecium [8] = experiment: Antibacterial activity against vancomycin-sensitive Enterococcus faecium 12-3 after 18 hrs by CLSI broth microdilution method; conditions: 12-3, 18 h
Escherichia coli [9] = experiment: Antibacterial activity against extended-spectrum beta-lactamase deficient Escherichia coli ATCC 25922 after 18 hrs by CLSI broth microdilution method; conditions: ATCC 25922, 18 h
Escherichia coli [10] = experiment: Antibacterial activity against extended-spectrum beta-lactamase harboring Escherichia coli 12-15 after 18 hrs by CLSI broth microdilution method; conditions: 12-15, 18 h
Klebsiella pneumoniae [11] = experiment: Antibacterial activity against new delhi metallo-beta-lactamase-1 harboring Klebsiella pneumoniae ATCC BAA-2146 after 18 hrs by CLSI broth microdilution method; conditions: ATCC BAA-2146, 18 h
Klebsiella pneumoniae [12] = experiment: Antibacterial activity against extended-spectrum beta-lactamase harboring Klebsiella pneumoniae 12-8 after 18 hrs by CLSI broth microdilution method; conditions: 12-8, 18 h
Pseudomonas aeruginosa [13] = experiment: Antibacterial activity against Pseudomonas aeruginosa ATCC 27853 after 18 hrs by CLSI broth microdilution method; conditions: ATCC 27853, 18 h
[14] = test system: Acinetobacter calcoaceticus; experiment: Antibacterial activity against Acinetobacter calcoaceticus ATCC 19606 after 18 hrs by CLSI broth microdilution method; conditions: ATCC 19606, 18 h
Enterobacter cloacae [15] = experiment: Antibacterial activity against Enterobacter cloacae ATCC 43560 after 18 hrs by CLSI broth microdilution method; conditions: ATCC 43560, 18 h
Proteus mirabilis = experiment: Antibacterial activity against Proteus mirabilis 12-6 after 18 hrs by CLSI broth microdilution method; conditions: 12-6, 18 h
Escherichia coli [16] = experiment: Antibacterial activity against extended-spectrum beta-lactamase harboring Escherichia coli 13-1 after 18 hrs by CLSI broth microdilution method; conditions: 13-1, 18 h
Escherichia coli [17] = experiment: Antibacterial activity against extended-spectrum beta-lactamase harboring Escherichia coli CDC1001728 after 18 hrs by CLSI broth microdilution method; conditions: CDC1001728, 18 h
Klebsiella pneumoniae [18] = experiment: Antibacterial activity against carbapenem-resistant Klebsiella pneumoniae 12-11 after 18 hrs by CLSI broth microdilution method; conditions: 12-11, 18 h
Klebsiella pneumoniae [19] = experiment: Antibacterial activity against carbapenem-resistant Klebsiella pneumoniae 12-12 after 18 hrs by CLSI broth microdilution method; conditions: 12-12, 18 h
[20] = test system: Acinetobacter calcoaceticus; experiment: Antibacterial activity against new delhi metallo-beta-lactamase-1 harboring Acinetobacter calcoaceticus 13-1 after 18 hrs by CLSI broth microdilution method; conditions: 13-1, 18 h
[21] = test system: Acinetobacter calcoaceticus; experiment: Antibacterial activity against carbapenem-resistant Acinetobacter calcoaceticus 12-6 after 18 hrs by CLSI broth microdilution method; conditions: 12-6, 18 h
Klebsiella aerogenes [22] = experiment: Antibacterial activity against carbapenem-resistant Enterobacter aerogenes 11-4 after 18 hrs by CLSI broth microdilution method; conditions: 11-4, 18 h
Enterobacter cloacae [23] = experiment: Antibacterial activity against new delhi metallo-beta-lactamase-1 harboring Enterobacter cloacae CDC1000654 after 18 hrs by CLSI broth microdilution method; conditions: CDC1000654, 18 h
Enterobacter cloacae [24] = experiment: Antibacterial activity against new delhi metallo-beta-lactamase-1 harboring Enterobacter cloacae 13-1 after 18 hrs by CLSI broth microdilution method; conditions: 13-1, 18 h
[25] = test system: Staphylococcus epidermidis; experiment: Antibacterial activity against methicillin-sensitive Staphylococcus epidermidis 12-6 after 18 hrs by CLSI broth microdilution method; conditions: 12-6, 18 h
Staphylococcus aureus [26] = experiment: Antibacterial activity against methicillin-resistant Staphylococcus aureus ATCC 33591 after 18 hrs by CLSI broth microdilution method; conditions: ATCC 33591, 18 h
Staphylococcus aureus [27] = experiment: Antibacterial activity against methicillin-sensitive Staphylococcus aureus 15 after 18 hrs by CLSI broth microdilution method; conditions: Staphylococcus aureus, 15, 18 h
Staphylococcus aureus [28] = experiment: Antibacterial activity against methicillin-sensitive Staphylococcus aureus 12-28 after 18 hrs by CLSI broth microdilution method; conditions: 12-28, 18 h
Enterococcus faecalis [29] = experiment: Antibacterial activity against vancomycin-resistant Enterococcus faecalis ATCC 51299 after 18 hrs by CLSI broth microdilution method; conditions: ATCC 51299, 18 h
Enterococcus faecalis [30] = experiment: Antibacterial activity against vancomycin-sensitive Enterococcus faecalis 12-5 after 18 hrs by CLSI broth microdilution method; conditions: 12-5, 18 h
Enterococcus faecium [31] = experiment: Antibacterial activity against vancomycin-resistant Enterococcus faecium 12-1 after 18 hrs by CLSI broth microdilution method; conditions: 12-1, 18 h
Escherichia coli [32] = experiment: Antibacterial activity against extended-spectrum beta-lactamase deficient Escherichia coli 1515 after 18 hrs by CLSI broth microdilution method; conditions: Escherichia coli, 1515, 18 h
Klebsiella pneumoniae [33] = experiment: Antibacterial activity against extended-spectrum beta-lactamase deficient Klebsiella pneumoniae 7 after 18 hrs by CLSI broth microdilution method; conditions: Klebsiella pneumoniae, 7, 18 h
Klebsiella pneumoniae [34] = experiment: Antibacterial activity against extended-spectrum beta-lactamase deficient Klebsiella pneumoniae 12-4 after 18 hrs by CLSI broth microdilution method; conditions: 12-4, 18 h
Pseudomonas aeruginosa [35] = experiment: Antibacterial activity against Pseudomonas aeruginosa 12-16 after 18 hrs by CLSI broth microdilution method; conditions: 12-16, 18 h
Klebsiella aerogenes [36] = experiment: Antibacterial activity against Enterobacter aerogenes ATCC 13048 after 18 hrs by CLSI broth microdilution method; conditions: ATCC 13048, 18 h
Serratia marcescens = experiment: Antibacterial activity against Serratia marcescens ATCC 21074 after 18 hrs by CLSI broth microdilution method; conditions: ATCC 21074, 18 h
Providencia rettgeri = experiment: Antibacterial activity against Providencia rettgeri ATCC 31052 after 18 hrs by CLSI broth microdilution method; conditions: ATCC 31052, 18 h
Proteus vulgaris = experiment: Antibacterial activity against Proteus vulgaris ATCC 29905 after 18 hrs by CLSI broth microdilution method; conditions: ATCC 29905, 18 h
[37] = test system: Stenotrophomonas maltophilia; experiment: Antibacterial activity against Stenotrophomonas maltophilia ATCC 13636 after 18 hrs by CLSI broth microdilution method; conditions: ATCC 13636, 18 h
Citrobacter freundii = experiment: Antibacterial activity against Citrobacter freundii ATCC 43864 after 18 hrs by CLSI broth microdilution method; conditions: ATCC 43864, 18 h

SMILES: C[C@H]1COc2c(N3CCN(C)CC3)c(F)cc3c(=O)c(C(=O)O)cn1c23.C[C@H]1COc2c(N3CCN(C)CC3)c(F)cc3c(=O)c(C(=O)O)cn1c23.O [LEVOFLOXACIN]
- MIC [1]: 0.125 µg/mL
- MIC [2]: 4 µg/mL
- MIC (Staphylococcus aureus [3]): 0.125 µg/mL
- MIC (Staphylococcus aureus [4]): 32 µg/mL
- MIC (Enterococcus faecalis [5]): 0.5 µg/mL
- MIC (Enterococcus faecalis [6]): > 128 µg/mL
- MIC (Enterococcus faecium [7]): 64 µg/mL
- MIC (Enterococcus faecium [8]): 32 µg/mL
- MIC (Escherichia coli [9]): ≤ 0.03 µg/mL
- MIC (Escherichia coli [10]): 16 µg/mL
- MIC (Klebsiella pneumoniae [11]): > 128 µg/mL
- MIC (Klebsiella pneumoniae [12]): 8 µg/mL
- MIC (Pseudomonas aeruginosa [13]): 0.5 µg/mL
- MIC [14]: 0.5 µg/mL
- MIC (Enterobacter cloacae [15]): ≤ 0.03 µg/mL
- MIC (Proteus mirabilis): 4 µg/mL
- MIC (Escherichia coli [16]): 64 µg/mL
- MIC (Escherichia coli [17]): 16 µg/mL
- MIC (Klebsiella pneumoniae [18]): 16 µg/mL
- MIC (Klebsiella pneumoniae [19]): 8 µg/mL
- MIC [20]: 2 µg/mL
- MIC [21]: 8 µg/mL
- MIC (Klebsiella aerogenes [22]): 16 µg/mL
- MIC (Enterobacter cloacae [23]): 32 µg/mL
- MIC (Enterobacter cloacae [24]): 128 µg/mL
- MIC [25]: 0.5 µg/mL
- MIC (Staphylococcus aureus [26]): 0.125 µg/mL
- MIC (Staphylococcus aureus [27]): 0.125 µg/mL
- MIC (Staphylococcus aureus [28]): 0.125 µg/mL
- MIC (Enterococcus faecalis [29]): 0.5 µg/mL
- MIC (Enterococcus faecalis [30]): 1 µg/mL
- MIC (Enterococcus faecium [31]): 32 µg/mL
- MIC (Escherichia coli [32]): ≤ 0.03 µg/mL
- MIC (Klebsiella pneumoniae [33]): ≤ 0.03 µg/mL
- MIC (Klebsiella pneumoniae [34]): ≤ 0.03 µg/mL
- MIC (Pseudomonas aeruginosa [35]): 8 µg/mL
- MIC (Klebsiella aerogenes [36]): ≤ 0.03 µg/mL
- MIC (Serratia marcescens): 0.06 µg/mL
- MIC (Providencia rettgeri): ≤ 0.03 µg/mL
- MIC (Proteus vulgaris): 0.125 µg/mL
- MIC [37]: 0.25 µg/mL
- MIC (Citrobacter freundii): ≤ 0.03 µg/mL
